Assays:
[1] = Dissolution speed: time until 1 g of powder dissolves completely in 100 ml warm water at 50° C., stirring 550 rpm; format: physicochemical
Protocol: (§1) As to the dissolution speed, 1 g of powder was dropped into 100 ml of warm water at 50° C. with stirring at a number of revolutions of 550 rpm (using a 200 ml beaker and a magnetic stirrer), and the time until dissolving completely was measured. The time was employed as an indicator of the dissolution speed.
as §1, with “C. or water at ordinary temperature” for “C.”, “A mean value of twice measurement” for “The time”

[2] = Dissolution speed: time until 1 g of powder dissolves completely in 100 ml water at ordinary temperature, stirring 550 rpm; format: physicochemical; conditions: Table 4, 25 degrees (ordinary temperature), 1 g in 100 ml water, mean of twice measurement
Protocol: as §1, with “C. or water at ordinary temperature” for “C.”, “A mean value of twice measurement” for “The time”

[3] = Mean particle size D50 by digital image analysis type particle size distribution meter; format: physicochemical
From the text: The size of the solid solution of the invention is preferably 50-1000 μm as a mean particle size. The mean particle size as used herein refers to the number median particle size of sieve diameter D50. In view of dissolution speed taking melting ability in the mouth of solid foods and usability as solid beverages into consideration, too large crystals are unsuitable for practical use. Too small crystals are also unsuitable, due to being choked by dusting upon eating and dusting loss upon manufacturing. As to the mean particle size, D50 was measured by a digital image analysis type particle size distribution meter (Ana Tec As Norway). […]

[4] = at 20° C.; water; cited from earlier work
[5] = Table 1, 1 g in 100 ml warm water at 50° C., time until dissolving completely
[6] = Table 5, 50 degrees, 1 g in 100 ml warm water, mean of twice measurement

SMILES | Dissolution Speed [1, 5] [s] | Dissolution Speed [1, 6] [s] | Dissolution Speed [2] [s] | Mean Particle Size ([3]; Table 1) [μm] | Mean Particle Size ([3]; Table 4) [μm] | Mean Particle Size ([3]; Table 5) [μm] | solubility [4] [g]
CC(C)[C@H](N)C(=O)O [Val, L-valine] | 118 | 117.5 | 142 | 210 | 210 | 210 | 5.75
CC(C)C[C@H](N)C(=O)O [Leu, L-leucine] | 130 | 130 | 320 | 280 | 280 | 280 | 2.38
CC[C@H](C)[C@H](N)C(=O)O [Ile, L-isoleucine] | 129 | 128.5 | 287 | 400 | 400 | 400 | 4.02

Source: patent publication US20110257236A1, “SOLID SOLUTION OF VALINE, ISOLEUCINE, LEUCINE AND ITS MANUFACTURING METHOD” (AJINOMOTO CO., INC., priority 2008, published 2011)
